Measured values taken from US20200352912A1, “ANTIMICROBIAL COMPOSITIONS AND METHODS OF USING THE SAME” (The Board Of Supervisors Of Louisiana State University And …, priority 2018, published 2020).

Experiments:
[1] = system: C. albicans pre-formed biofilm; experiment: pre-formed mature biofilm (XTT, CFU); assay type: cell-based, Candida albicans; details: all concentrations tested, 24 h treatment
Method: (§1) The effect of L-161, 982 on pre-formed mature biofilms was tested. Mono- and dual-species C. albicans and/or S. aureus biofilms were grown on 96-well plates for 24 h before being treated with the indicated concentration of L-161, 982 for a further 24 h. After treatment, metabolic activity of biofilms was quantified by the XTT assay (A) and then biofilms were disrupted to determine live colony forming units (CFU) (B). The results are cumulative of three independent experiments with duplicate samples. Statistics were performed using One-way ANOVA with the Tukey post-hoc test for the XTT assay. The Mann-Whitney U test was used to analyze CFU data. Significance is indicated as follows: ns—not significant, *P<0.05; *** P<0.001. Error bars represent standard deviation.
(§2) Following growth as described above, microbes were washed in phosphate-buffered saline (PBS) by centrifugation, counted on a hemocytometer, and adjusted to 2×10^7 CFU/ml in RPMI buffered with MOPS (165 mM). […]
(§3) The XTT reduction assay was used to determine the metabolic activity of biofilms following treatment with L-161, 982 (17). Briefly, wells were washed once in PBS, and plates incubated at 37° C. for 2 h with 200 μl XTT working reagent (0.5 mg/ml XTT and 1 μM Menadione) and the resulting absorbance measured at 490 nm on a microplate spectrophotometer. […]

[2] = system: pre-formed dual-species biofilm; experiment: pre-formed mature biofilm (XTT, CFU); assay type: cell-based, C. albicans and S. aureus; details: 100 and 200 μg/ml
Method: as §1, §2, §3

[3] = administration of L-161,982 alone to control animals; assay type: in vivo, mice
Excerpt: Furthermore, L-161, 982 protected mice against the synergistic lethality induced by co-infection with C. albicans and S. aureus. […] The goal of these studies was to further investigate the antimicrobial mechanism of action (MOA) of L-161, 982, testing mechanisms associated with major classes of antimicrobials.

S. aureus strain 43300 = experiment: hemolysis assay; assay type: cell-based, Staphylococcus aureus
Method: (A) Macroscopic analysis of S. aureus hemolytic activity. S. aureus was spotted on Mueller-Hinton agar containing sheep blood and/or various concentrations of L-161, 982, and incubated at 37 C for 24 h (0, 25 50, 100) or 72 h (200). (B) Width of the zone of RBC clearance was measured at 4 points around each S. aureus area of growth in 2 independent replicates. * p<0.05 control vs. drug-treated.
Strains and growth conditions. The methicillin-resistant S. aureus strain NRS383 was obtained from the Network on Antimicrobial Resistance in S. aureus (NARSA) data bank. As NRS383 has little or no hemolytic activity or pigmentation, S. aureus strain 43300 (ATCC) was used for the hemolysis and staphyloxanthin assays. Frozen stocks were obtained at −80° C. and streaked onto trypticase soy agar (TSA) plates at 37° C. prior to use. A single colony was transferred to 10 ml of trypticase soy broth (TSB) and shaken at 37° C. overnight. […]
Hemolysis Assay. Hemolytic activity was measured using Mueller-Hinton agar plates containing 5% defribinated sheep blood (Thermo Fisher)+/−L-161, 982 at a final concentration of 50 μg/ml. […] Plates were placed on a light box and digitally photographed and images were analyzed using Photoshop CS3. […] The width of each zone was measured at 0, 90, 180, 270° around growth spots (2-3 spots/group) using the ruler tool. […]

FP = FP (Homo sapiens, UniProt P43088); details: cited from earlier work
mouse primary myoblasts = details: cited from earlier work

Chain of FP (P43088 whole entry): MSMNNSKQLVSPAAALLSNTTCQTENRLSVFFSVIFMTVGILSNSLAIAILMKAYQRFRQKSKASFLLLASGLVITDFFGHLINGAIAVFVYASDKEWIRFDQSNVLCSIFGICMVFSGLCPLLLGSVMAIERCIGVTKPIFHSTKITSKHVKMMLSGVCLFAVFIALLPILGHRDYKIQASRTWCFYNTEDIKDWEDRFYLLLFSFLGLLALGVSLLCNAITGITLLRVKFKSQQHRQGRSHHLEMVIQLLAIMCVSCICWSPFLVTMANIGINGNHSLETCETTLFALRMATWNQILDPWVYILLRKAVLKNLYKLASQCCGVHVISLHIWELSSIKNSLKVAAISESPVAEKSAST

CCCCc1nn(-c2ccccc2C(F)(F)F)c(=O)n1Cc1ccc(-c2ccccc2S(=O)(=O)NC(=O)c2sccc2C)cc1 [L-161, 982, N-[[4′-[[3-Butyl-1,5-dihydro-5-oxo-1-[2-(trifluoromethyl)phenyl]-4H-1,2,4-triazol-4-yl]methyl][1,1′-biphenyl]-2-yl]sulfonyl]-3-methyl-2-thiophenecarboxamide]
metabolic activity of pre-formed biofilm [1]: no significant inhibitory effects
S. aureus CFUs recovered from pre-formed dual-species biofilm [2]: no CFUs were recovered
morbidity or mortality in control animals [3]: no morbidity or mortality
overt signs of toxicity [3]: did not cause any overt signs of toxicity
hemolytic activity, zones of clearance on blood agar (S. aureus strain 43300): significantly reduced zones of clearance
Ki (FP): 5.6 µM
proliferation of mouse primary myoblasts (mouse primary myoblasts): inhibit proliferation
